# US5538731A, “Cosmetic” (Mikimoto Pharmaceutical Co., Ltd., priority 1992, dated 1996)
# Assay: Antioxydation test (linoleic acid, thiocyanate method)
# Conditions: 5 mg specimen
# Experimental: In a 50 ml test tube with a screw cap, the following test solution was prepared. […]
# This test solution was allowed to stand in a thermostatic bath at 50° C., while light was shut out. […]
# 12.125 ml of 75% ethanol and 0.125 ml of 30% ammonium thiocyanate were added to 0.125 ml of the test solution, and the solution was stirred and then allowed to stand for 3 minutes. Afterward, 0.125 ml of a 3.5% aqueous HCl solution including 0.02 N ferrous chloride was added thereto, and the solution was stirred and then allowed to stand for 3 minutes. Next, absorbance was measured at a wavelength of 500 nm. A cell length was 10 mm, and a control was prepared by replacing the test solution with water.
substance,measurement,setting,value
Vitamin E,Absorbance at 500 nm After 3 days,"linoleic acid test solution at 50° C., light shut out, water 0.050",0.026
same,Absorbance at 500 nm After 5 days,"linoleic acid test solution at 50° C., light shut out, water 0.103",0.047
same,Absorbance at 500 nm After 7 days,"linoleic acid test solution at 50° C., light shut out, water 0.262",0.070
same,Absorbance at 500 nm After 0 day,"linoleic acid test solution, before placing at 50° C., water 0.014",0.015
